For one compound, Activity results are on record in ChEMBL document CHEMBL3871268, “Chalcogen containing heterocyclic scaffolds: New hybrids with antitumoral activity” (Eur J Med Chem, 2016).

The nature of experiment [1]: Cell cycle arrest in human MCF7 cells assessed as M1 quadrant cells at 100 nM measured after 48 hrs by propidium iodide staining-based flow cytometry (reference value: 98.1%). The class given is functional.
Experiment [2] in a line: Cell cycle arrest in human MCF7 cells assessed as sub-diploid cells at 100 nM measured after 48 hrs by propidium iodide staining-based flow cytometry (reference value: 1.9%). The class given is functional. On the technique in general: In flow cytometry, cells or beads pass a laser one at a time.

On to `COC[C@H]1OC(=O)c2coc3c2[C@@]1(C)C1=C(C3=O)[C@@H]2CCC(=O)[C@@]2(C)C[C@H]1OC(C)=O`, for which the Activity in experiment [1] amounted to 93.8%; in experiment [2], 6.2%.
